Measured values published in patent US20260242415A1 (priority 2022, published 2026).

Key:
[1] = test system: SARS2-S pseudotyped VSV, Alpha
[2] = test system: SARS2-S pseudotyped VSV, Beta
[3] = test system: SARS2-S pseudotyped VSV, Delta
[4] = test system: SARS2-S pseudotyped VSV, Omicron BA.1
[5] = test system: SARS2-S pseudotyped VSV, Omicron BA.2
SARS-CoV-2 spike protein = SARS-CoV-2 spike protein (Severe acute respiratory syndrome coronavirus 2, UniProt P0DTC2); assay type: binding; design: key: Results labeled “−” represent decreased binding; Results labeled “0” represent substantially similar binding; Results labeled “1” represent the original sequence; Results labeled “+” represent about 105-200% binding; Results labeled “++” represent about 200-300% binding; Results labeled “+++” represent about 300-500% binding; Results labeled “++++” represent over about 500% binding
omicron variant = settings: cited from earlier work

Compound	binding standardized to SEQ ID NO: 1 (SARS-CoV-2 spike protein)	other results
CC[C@H](C)[C@@H]1NC(=O)[C@H](CCC(N)=O)NC(=O)[C@H](CCC(=O)O)NC(=O)[C@H](CCCNC(=N)N)NC(=O)[C@@H]2CCCN2C(=O)[C@H](CCCNC(=N)N)NC(=O)[C@H](CCCNC(=N)N)NC(=O)[C@H](Cc2ccc(O)cc2)NC(=O)CSC[C@@H](C(=O)NCC(N)=O)NC(=O)[C@H](Cc2ccccc2)NC(=O)[C@H](C(C)C)NC(=O)[C@H](Cc2c[nH]c3ccccc23)NC(=O)[C@H](CC(C)C)NC(=O)[C@H](CO)NC(=O)CNC(=O)[C@H]([C@@H](C)CC)NC(=O)[C@H]([C@@H](C)CC)NC1=O [Compound S1b3inL1]		IC50 [1]: 2.6 µM; IC50 [2]: 5.2 µM; IC50 [3]: 3.5 µM; IC50 [4]: 5.2 µM; IC50 [5]: 3.5 µM
ARPREQIIIGSLWVF [SEQ ID NO: 16]	−	
RAPREQIIIGSLWVF [SEQ ID NO: 17]	−	
RRPAEQIIIGSLWVF [SEQ ID NO: 19]	0	
RRPREQAIIGSLWVF [SEQ ID NO: 22]	−	
RRPREQIAIGSLWVF [SEQ ID NO: 23]	−	
RRPREQIIAGSLWVF [SEQ ID NO: 24]	−	
RRPREQIIIASLWVF [SEQ ID NO: 25]	−	
RRPREQIIIGALWVF [SEQ ID NO: 26]	−	
RRPREQIIIGSAWVF [SEQ ID NO: 27]	−	
RRPREQIIIGSLAVF [SEQ ID NO: 28]	−	
RRPREQIIIGSLWVF [Compound S1b3inL1]	1	
Sotrovimab		fold loss in potency / decrease in activity against omicron (omicron variant): 3 fold
